Measured values reported in BindingDB's records for doi:10.1007/pl00005197 (Novartis Pharma, 1998).
“And” between values parts separate entries of the source, which are not always exact repeats. Identical values can stand only once. Numbered stars: 1 amine (or outer) side, 2 acyl side, 3 side chain; on linkers, the order of the positions; unused ones are H or OH. Bridge positions count the residues as written; N and C are the ends. Square brackets hold non-standard residues; d marks the D form. Peptide text beside a SMILES is read from it. * marks the point of attachment. d1Nal = N[C@H](Cc1cccc2ccccc12)C(=O)O; Asu = N[C@@H](CCCCCC(=O)O)C(=O)O; X1 = O=C(C(N[*:1])S[*:3])[*:2]; Ahp = NCCCCCCC(=O)O; Bn = c1ccc(C*)cc1; Mpa = O=C(O)CCS

Key:
[1] = target: Somatostatin receptor type 5 (Homo sapiens, UniProt P35346)
[2] = target: Somatostatin receptor type 3 (Homo sapiens, UniProt P32745)
[3] = target: Somatostatin receptor type 1 (Homo sapiens, UniProt P30872)
[4] = target: Somatostatin receptor type 2 (Homo sapiens, UniProt P30874)
[5] = target: Somatostatin receptor type 4 (Homo sapiens, UniProt P31391)
Chain of Somatostatin receptor type 4 (P31391 whole entry): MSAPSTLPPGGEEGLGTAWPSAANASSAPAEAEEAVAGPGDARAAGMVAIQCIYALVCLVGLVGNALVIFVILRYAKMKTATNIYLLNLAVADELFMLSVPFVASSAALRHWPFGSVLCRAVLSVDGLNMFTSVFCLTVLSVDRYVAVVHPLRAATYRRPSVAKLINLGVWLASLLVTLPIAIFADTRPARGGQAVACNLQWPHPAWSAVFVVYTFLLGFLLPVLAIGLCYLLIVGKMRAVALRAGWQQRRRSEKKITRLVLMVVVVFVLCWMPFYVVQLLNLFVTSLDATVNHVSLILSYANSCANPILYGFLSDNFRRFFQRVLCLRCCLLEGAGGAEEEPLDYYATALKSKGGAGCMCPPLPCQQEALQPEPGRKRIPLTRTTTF

Chain of Somatostatin receptor type 5 (P35346 whole entry): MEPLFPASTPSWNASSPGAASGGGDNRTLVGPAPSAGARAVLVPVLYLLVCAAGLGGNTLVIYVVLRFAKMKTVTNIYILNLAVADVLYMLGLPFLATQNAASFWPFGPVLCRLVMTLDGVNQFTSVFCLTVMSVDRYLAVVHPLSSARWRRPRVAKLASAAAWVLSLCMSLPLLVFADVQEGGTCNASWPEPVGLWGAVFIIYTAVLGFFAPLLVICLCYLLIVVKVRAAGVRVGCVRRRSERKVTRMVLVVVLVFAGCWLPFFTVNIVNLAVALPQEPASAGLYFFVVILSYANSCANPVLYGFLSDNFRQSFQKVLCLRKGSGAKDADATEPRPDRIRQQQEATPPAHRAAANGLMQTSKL
Chain of Somatostatin receptor type 1 (P30872 whole entry): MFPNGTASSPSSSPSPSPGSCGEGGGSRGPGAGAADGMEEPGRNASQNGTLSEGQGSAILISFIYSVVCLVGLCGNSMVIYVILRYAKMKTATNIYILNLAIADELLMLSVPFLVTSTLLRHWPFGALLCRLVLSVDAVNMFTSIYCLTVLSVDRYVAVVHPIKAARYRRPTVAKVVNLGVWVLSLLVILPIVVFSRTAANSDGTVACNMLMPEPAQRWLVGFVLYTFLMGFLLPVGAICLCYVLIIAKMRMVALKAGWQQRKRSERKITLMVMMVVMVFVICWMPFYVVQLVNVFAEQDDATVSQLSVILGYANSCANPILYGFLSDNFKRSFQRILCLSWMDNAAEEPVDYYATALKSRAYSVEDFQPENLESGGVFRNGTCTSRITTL
Chain of Somatostatin receptor type 3 (P32745 whole entry): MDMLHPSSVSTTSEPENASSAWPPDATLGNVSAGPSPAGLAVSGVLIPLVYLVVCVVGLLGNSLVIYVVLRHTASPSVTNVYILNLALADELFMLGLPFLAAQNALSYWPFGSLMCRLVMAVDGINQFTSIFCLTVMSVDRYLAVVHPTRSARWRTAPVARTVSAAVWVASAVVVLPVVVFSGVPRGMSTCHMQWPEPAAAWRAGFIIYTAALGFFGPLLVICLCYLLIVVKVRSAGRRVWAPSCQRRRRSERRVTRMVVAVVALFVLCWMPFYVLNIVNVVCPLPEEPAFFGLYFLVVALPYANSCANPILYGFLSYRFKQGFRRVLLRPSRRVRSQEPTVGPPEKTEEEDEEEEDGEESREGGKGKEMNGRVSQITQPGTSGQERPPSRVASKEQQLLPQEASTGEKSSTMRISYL
Chain of Somatostatin receptor type 2 (P30874 whole entry): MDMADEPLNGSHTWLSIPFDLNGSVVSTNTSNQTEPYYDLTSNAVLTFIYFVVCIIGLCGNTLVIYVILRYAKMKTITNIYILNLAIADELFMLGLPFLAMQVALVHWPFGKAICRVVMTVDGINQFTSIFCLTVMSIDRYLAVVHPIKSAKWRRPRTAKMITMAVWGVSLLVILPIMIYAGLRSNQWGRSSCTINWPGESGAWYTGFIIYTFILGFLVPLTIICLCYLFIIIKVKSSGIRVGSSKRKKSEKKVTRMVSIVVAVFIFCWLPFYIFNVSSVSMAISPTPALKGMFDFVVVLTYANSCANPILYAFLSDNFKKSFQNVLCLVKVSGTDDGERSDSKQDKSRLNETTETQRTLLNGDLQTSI

Ki [1] | Ki [2] | Ki [3] | Ki [4] | Ki [5] | Structure (SMILES)
0.00029 µM and 0.00043 µM | 0.00037 µM and 0.0003 µM | 0.00025 µM | 0.00085 µM and 0.00051 µM | 0.00058 µM and 0.00028 µM | CSCC[C@H](NC(=O)[C@H](CCCN=C(N)N)NC(=O)[C@@H](N)CC(=O)O)C(=O)N1CCC[C@H]1C(=O)N[C@H]1CSSC[C@@H](C(=O)N[C@@H](CCCCN)C(=O)O)NC(=O)[C@H](CO)NC(=O)[C@H](CO)NC(=O)[C@H](Cc2ccccc2)NC(=O)[C@H]([C@@H](C)O)NC(=O)[C@H](CCCCN)NC(=O)[C@H](Cc2c[nH]c3ccccc23)NC(=O)[C@H](Cc2ccccc2)NC(=O)[C@H](Cc2ccccc2)NC(=O)[C@H](CC(N)=O)NC(=O)[C@H](CCCN=C(N)N)NC1=O [Cortistatin]
0.955 µM | 0.589 µM and 0.0832 µM | 0.0955 µM and 0.158 µM | 1.82 µM | 0.331 µM and 0.851 µM | C[C@@H](OCc1ccccc1)[C@@H]1NC(=O)[C@H](CCCCN)NC(=O)[C@@H](Cc2c[nH]c3ccccc23)NC(=O)[C@H](Cc2ccccc2)NC(=O)CCCCCCNC1=O [c[Aha-Phe-D-Trp-Lys-Thr(Bzl)]] (cyclo([Ahp]F[dW]KT(Bn)))
0.214 µM | 0.00151 µM and 0.00052 µM | 0.00468 µM and 0.0049 µM | 0.00115 µM | 0.0017 µM and 0.00214 µM | C[C@@H](O)[C@@H]1NC(=O)[C@H](Cc2ccc(O)cc2)NC(=O)[C@H]([C@@H](C)O)NC(=O)[C@H](CCCCN)NC(=O)[C@H](Cc2c[nH]c3ccccc23)NC(=O)[C@H](Cc2ccccc2)NC(=O)[C@H](Cc2ccccc2)NC(=O)[C@H](CC(N)=O)NC(=O)[C@H](CCCCN)NC(=O)CCCCC[C@@H](C(=O)O)NC(=O)[C@H](CO)NC1=O [CGP-23996] (KNFFWKTYTS[Asu]-OH; lactam N-11)
0.00072 µM |  | > 10 µM |  |  | CC(C)[C@@H]1NC(=O)[C@H](CCCCN)NC(=O)[C@@H](Cc2c[nH]c3ccccc23)NC(=O)[C@H](Cc2ccc(O)cc2)NC(=O)[C@H](C)N(C)C(=O)[C@H](Cc2ccccc2)NC1=O [seglitide]
 | 0.0427 µM and 0.0123 µM | 0.0832 µM and 0.11 µM | 0.00045 µM and 0.00025 µM | 0.0562 µM and 0.275 µM | CC(C)[C@@H]1NC(=O)[C@H](CCCCN)NC(=O)[C@@H](Cc2c[nH]c3ccccc23)NC(=O)[C@H](Cc2ccc(O)cc2)NC(=O)[C@@H](NC(=O)[C@H](N)Cc2ccccc2)CSSC[C@@H](C(=O)N[C@@H](Cc2c[nH]c3ccccc23)C(N)=O)NC1=O [CAS_71306] (H-[dF]CY[dW]KVCW-NH2; disulfide 2-7)
 | 0.024 µM and 0.00562 µM | 0.562 µM and 0.501 µM |  | 0.049 µM and 0.174 µM | C[C@@H](O)[C@@H]1NC(=O)[C@H](CCCCN)NC(=O)[C@@H](Cc2c[nH]c3ccccc23)NC(=O)[C@H](Cc2c[nH]c3ccccc23)NC(=O)[C@H](Cc2ccccc2)NC(=O)CCCCCCNC(=O)[C@H](Cc2ccccc2)NC1=O [L-362855] (cyclo([Ahp]FW[dW]KTF))
2.75 µM | 0.0676 µM and 0.0141 µM | 8.71 µM and > 10 µM | 0.0219 µM | 1.05 µM and 2.75 µM | CC(C)[C@@H]1NC(=O)[C@H](CCCCN)NC(=O)[C@@H](Cc2c[nH]c3ccccc23)NC(=O)[C@H](Cc2ccc(O)cc2)NC(=O)CCSSC(C(=O)N[C@@H](Cc2ccccc2)C(N)=O)NC1=O (stereo not given in full) [CAS_117580-24-2] ([Mpa]Y[dW]KV[X1]F-NH2; disulfide 1-6)
0.0355 µM |  | 0.00427 µM and 0.0024 µM | 0.00316 µM | 0.00234 µM and 0.00631 µM | C[C@@H](O)[C@H](NC(=O)[C@H](Cc1ccccc1)NC(=O)[C@@H](NC(=O)[C@H](CCCCN)NC(=O)[C@@H](Cc1c[nH]c2ccccc12)NC(=O)[C@H](Cc1ccccc1)NC(=O)[C@H](Cc1ccccc1)NC(=O)[C@H](N)Cc1ccccc1)[C@@H](C)O)C(N)=O [CAS_133073-82-2] (H-[dF]FF[dW]KTFT-NH2)
0.00398 µM | 0.00087 µM and 0.00074 µM |  | 0.00288 µM | 0.00174 µM and 0.00178 µM | C[C@@H](O)[C@@H]1NC(=O)[C@H](CCCCN)NC(=O)[C@H](Cc2c[nH]c3ccccc23)NC(=O)[C@H](Cc2ccccc2)NC(=O)[C@H](Cc2ccccc2)NC(=O)[C@H](CC(N)=O)NC(=O)[C@H](CCCCN)NC(=O)[C@@H](NC(=O)[C@@H]2CCCN2)CSSC[C@@H](C(=O)N[C@@H](CCCCN)C(=O)O)NC(=O)[C@H](CO)NC(=O)[C@H](CO)NC(=O)[C@H](Cc2ccccc2)NC1=O [Cortistatin(1-14)] (H-PCKNFFWKTFSSCK-OH; disulfide 2-13)
0.209 µM | 0.126 µM and 0.0832 µM | 0.245 µM and 0.347 µM | 0.589 µM | 0.0676 µM and 0.339 µM | CC(C)[C@H](NC(=O)[C@H](CCCCN)NC(=O)[C@@H](Cc1c[nH]c2ccccc12)NC(=O)[C@H](Cc1ccc(O)cc1)NC(=O)[C@H](Cc1ccccc1)NC(=O)[C@H](N)Cc1ccccc1)C(=O)N[C@@H](Cc1ccccc1)C(=O)N[C@H](Cc1cccc2ccccc12)C(N)=O [BIM 23056] (H-[dF]FY[dW]KVF[d1Nal]-NH2)

Structure (SMILES) | Ki [1] | Ki [2] | Ki [3] | Ki [4] | Ki [5]
CC(C)[C@@H]1NC(=O)[C@H](CCCCN)NC(=O)[C@@H](Cc2c[nH]c3ccccc23)NC(=O)[C@H](Cc2ccc(O)cc2)NC(=O)[C@@H](NC(=O)[C@H](N)Cc2ccc3ccccc3c2)CSSC[C@@H](C(=O)N[C@H](C(N)=O)[C@@H](C)O)NC1=O [3-(2-Naphtyl)-D-Ala-L-Cys(1)-L-Tyr-D-Trp-L-Lys-L-Val-L-Cys(1)-L-Thr-NH2] |  | 0.0138 µM and 0.00955 µM | 0.219 µM | 0.00054 µM and 0.00055 µM | 
C[C@@H](O)[C@@H]1NC(=O)[C@H](CCCCN)NC(=O)[C@@H](Cc2c[nH]c3ccccc23)NC(=O)[C@H](Cc2ccccc2)NC(=O)[C@@H]2CCCN2C(=O)[C@H](Cc2ccccc2)NC1=O (cyclo(PF[dW]KTF)) | 0.0676 µM | 0.457 µM and 0.148 µM | 4.79 µM and 4.17 µM | 0.00339 µM | 2.45 µM and 8.71 µM
